# Assay results published in US20190282476A1, “Cleansing Composition” (Colgate-Palmolive Company, priority 2015, published 2019).
# Test system: typical microorganisms encountered in personal care compositions
# Description: The cleansing compositions, e.g. any of Composition 1 or 1.1 to 1.27, include as preservatives, phenoxyethanol, sodium salicylate and a chelating agent (e.g., a salt of ethylenediaminetetraacetic acid). […] It is well known that preservative agents have established minimum inhibitory concentrations, and below such concentrations preservative agents are not effective in preventing microbial growth.
smiles,measurement,value
O=C([O-])c1ccccc1O.[Na+] [sodium salicylate],MIC,about 0.019 % by weight
